Test [1] addresses T1, NAD-dependent protein deacetylase sirtuin-1 (Homo sapiens, UniProt Q96EB6).
T1 sequence (Q96EB6 whole entry): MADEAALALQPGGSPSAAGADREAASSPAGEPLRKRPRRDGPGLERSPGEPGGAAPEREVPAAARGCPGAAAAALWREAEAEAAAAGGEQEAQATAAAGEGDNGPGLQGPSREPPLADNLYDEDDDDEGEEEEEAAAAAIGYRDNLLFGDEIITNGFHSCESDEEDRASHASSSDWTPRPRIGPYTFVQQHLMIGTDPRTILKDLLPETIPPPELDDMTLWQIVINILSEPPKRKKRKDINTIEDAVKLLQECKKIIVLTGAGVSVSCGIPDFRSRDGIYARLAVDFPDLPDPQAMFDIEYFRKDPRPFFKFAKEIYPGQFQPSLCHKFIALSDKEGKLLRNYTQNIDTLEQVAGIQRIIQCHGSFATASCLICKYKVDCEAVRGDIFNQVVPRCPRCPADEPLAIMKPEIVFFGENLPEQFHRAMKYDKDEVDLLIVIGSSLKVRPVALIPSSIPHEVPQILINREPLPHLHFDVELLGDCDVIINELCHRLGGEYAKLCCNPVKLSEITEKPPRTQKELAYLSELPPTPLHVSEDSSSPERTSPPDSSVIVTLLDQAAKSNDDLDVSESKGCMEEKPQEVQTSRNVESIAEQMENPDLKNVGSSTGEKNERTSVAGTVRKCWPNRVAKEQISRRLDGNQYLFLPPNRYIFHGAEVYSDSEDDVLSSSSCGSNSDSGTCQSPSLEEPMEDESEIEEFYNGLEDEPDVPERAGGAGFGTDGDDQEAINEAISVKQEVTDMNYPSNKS
Kind of test: Inhibition of lysine deacetylase activity of human full length GST-tagged SIRT1 expressed in Escherichia coli using H2N-HK-AcK-LM-COOH as substrate incubated with enzyme for 5 mins by reverse-phase HPLC analysis.

The target of test [2] is T1, NAD-dependent protein deacetylase sirtuin-1. Kind of test: Competitive inhibition of human full length GST-tagged SIRT1 expressed in Escherichia coli using H2N-HK-AcK-LM-COOH as substrate assessed as enzymatic deacetylation product formation incubated with enzyme for 5 mins by double reciprocal plot analysis.
Test [3] has as its target T2, NAD-dependent protein deacetylase sirtuin-1 (Homo sapiens) (UniProt Q96EB6).
T2 sequence (whole entry): T1 sequence (Q96EB6 whole entry)
Kind of test: Time-dependent inhibition of human full length GST-tagged SIRT1 expressed in Escherichia coli using H2N-HK-AcK-LM-COOH as substrate assessed as enzymatic deacetylation product formation at 5 to 10 uM by reverse-phase HPLC analysis.

Test [4] concerns the target T2, NAD-dependent protein deacetylase sirtuin-1 (Homo sapiens). Put plainly: Irreversible inhibition of human full length GST-tagged SIRT1 expressed in Escherichia coli using H2N-HK-AcK-LM-COOH as substrate assessed as recovery of enzyme activity at 150 uM preincubated for 30 mins followed by rapid dilution of preformed enzyme-inhibitor complex measured after 2 to 30 mins by reverse-phase HPLC analysis.

Test [5] has the same target. Kind of test: Mechanism based inhibition of human full length GST-tagged SIRT1 expressed in Escherichia coli assessed as longer-lived stabilized catalytic intermediate formation at 0.4 mM after 30 mins by MALDI-MS analysis in presence of NAD+.
Test [6] shares this target. Put plainly: Mechanism based inhibition of human full length GST-tagged SIRT1 expressed in Escherichia coli assessed as longer-lived stabilized catalytic intermediate 2 formation at 0.4 mM after 30 mins by MALDI-MS analysis in presence of NAD+ and 20% (v/v) methanol.
For test [7] the target is unchanged. Kind of test: Mechanism based inhibition of human full length GST-tagged SIRT1 expressed in Escherichia coli assessed as longer-lived stabilized catalytic intermediate 3 formation at 0.4 mM after 30 mins by MALDI-MS analysis in presence of NAD+ and 63% (v/v) H218O.
In test [8] the target is T3, NAD-dependent protein deacetylase (Thermotoga maritima (strain ATCC 43589 / MSB8 / DSM 3109 / JCM 10099)) (UniProt Q9WYW0).
T3 sequence (whole entry): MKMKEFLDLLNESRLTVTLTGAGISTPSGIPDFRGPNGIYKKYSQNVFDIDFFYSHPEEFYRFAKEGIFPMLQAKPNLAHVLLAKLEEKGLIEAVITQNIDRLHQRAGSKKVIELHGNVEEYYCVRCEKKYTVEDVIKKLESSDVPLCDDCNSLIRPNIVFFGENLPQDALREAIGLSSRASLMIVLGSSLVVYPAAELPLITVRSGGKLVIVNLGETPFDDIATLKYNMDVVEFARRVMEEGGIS
Kind of test: Mechanism based inhibition of Thermotoga maritima Sir2Tm assessed as longer-lived stabilized catalytic intermediate formation at 0.4 mM after 30 mins by MALDI-MS analysis in presence of NAD+.

Test [9] addresses T2, NAD-dependent protein deacetylase sirtuin-1 (Homo sapiens). Kind of test: Inhibition of lysine deacetylase activity of human full length GST-tagged SIRT1 expressed in Escherichia coli using H2N-HK-AcK-LM-COOH as substrate at 500 uM incubated with enzyme for 5 mins by reverse-phase HPLC analysis.
Test [10] shares this target. Put plainly: Inhibition of SIRT1 in human HCT116 cells assessed as enhancement of p53 acetylation at K382 position after 8 hrs by Western blot analysis. The format is cell-based. The note with it: HCT-116. In general terms: A western blot detects proteins with antibodies after separation by electrophoresis.
Test [11] shares this target. Put plainly: Inhibition of SIRT1 in human HCT116 cells assessed as enhancement of p53 acetylation at K382 position at 5 uM after 8 hrs by Western blot analysis. Type of test: cell-based. Particulars: HCT-116.
Test [12] has the same target. Put plainly: Inhibition of SIRT1 in human HCT116 cells assessed as enhancement of p53 acetylation at K382 position at 50 uM after 8 hrs by Western blot analysis. Type of test: cell-based. The note with it: HCT-116.
For test [13], the target named is T4, Histone deacetylase 8 (Homo sapiens) (UniProt Q9BY41).
T4 sequence (whole entry): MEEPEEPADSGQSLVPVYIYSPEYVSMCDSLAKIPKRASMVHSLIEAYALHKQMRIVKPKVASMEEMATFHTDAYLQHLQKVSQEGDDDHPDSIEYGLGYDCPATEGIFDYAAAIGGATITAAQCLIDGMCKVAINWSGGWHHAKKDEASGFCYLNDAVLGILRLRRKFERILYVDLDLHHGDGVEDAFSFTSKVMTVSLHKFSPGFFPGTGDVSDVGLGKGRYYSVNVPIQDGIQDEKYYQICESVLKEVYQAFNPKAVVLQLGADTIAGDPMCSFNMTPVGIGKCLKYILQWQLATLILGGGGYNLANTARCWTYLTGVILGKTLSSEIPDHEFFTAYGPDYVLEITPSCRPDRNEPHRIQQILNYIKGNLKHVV
Put plainly: Inhibition of human full length HDAC8 using CH3CONH-RH-AcK-(AcK)-CONH2 as substrate assessed as enzymatic deacetylation product formation measured at 500 uM after 1 hr by HPLC analysis.

Activity calls are given as the source filed them. The rule behind the calls is not given here. Square brackets hold non-standard residues; d marks the D form. Peptide text beside a SMILES is read from it. Asu = N[C@@H](CCCCCC(=O)O)C(=O)O

The results in this text go back to ChEMBL document CHEMBL3217631, “Potent sirtuin inhibition bestowed by l-2-amino-7-carboxamidoheptanoic acid (l-ACAH), a N-acetyl-lysine analog” (Medchemcomm, 2011).

What is called IC50 is the midpoint of a concentration-inhibition curve. A high value points to a need for much substance. One may read the Ki as the equilibrium dissociation constant of an inhibitor or competing ligand from its target. In general, inhibition refers to the relative decrease from the control value, in per cent.

As to `NC(=O)CCCCC[C@H](NC(=O)OCc1ccccc1)C(=O)Nc1ccccc1`, the IC50 in test [1] was > 1000 µM.

On to `CSCC[C@H](NC(=O)[C@H](CC(C)C)NC(=O)[C@H](CCCCCC(N)=O)NC(=O)[C@H](CCCCN)NC(=O)[C@H](Cc1cnc[nH]1)NC(C)=O)C(N)=O` (Ac-HK[Asu](NH2)LM-NH2), for which, in test [1], the concentration for half-maximal inhibition (IC50) is 11.7 µM. For the same molecule, the Ki in test [2] was found to be 2.6 µM. In addition, the inhibition result in [3], in [5], in [6], in [7] and in test [8] was “Active” throughout. The outcome in [4] was inactive.

Turning to `COC(=O)CCCCC[C@H](NC(=O)[C@H](CCCCN)NC(=O)[C@H](Cc1cnc[nH]1)NC(C)=O)C(=O)N[C@@H](CC(C)C)C(=O)N[C@@H](CCSC)C(N)=O` (Ac-HK[Asu](OMe)LM-NH2), the inhibition entry in [9] was “inactive”.

`CC(=O)NCCCC[C@H](NC(=O)[C@H](CCCCCC(N)=O)NC(=O)[C@H](CCCCNC(C)=O)NC(C)=O)C(N)=O` (Ac-Lys(Ac)-[Asu](NH2)-Lys(Ac)-NH2): the Activity result in test [10] is “Dose-dependent effect”. The result in [11] was inactive. The outcome in [12] was Active.

As for `CC(=O)NCCCC[C@H](NC(=O)[C@H](Cc1cnc[nH]1)NC(=O)[C@H](CCCNC(=N)N)NC(C)=O)C(=O)N[C@@H](CCCCCC(N)=O)C(N)=O` (Ac-RHK(Ac)[Asu](NH2)-NH2), in test [13], the inhibition is 12%.
